Test results as given in patent US20240376094A2, “SELECTIVE BCL-XL PROTAC COMPOUNDS AND METHODS OF USE” (Les Laboratoires Servier, priority 2021, published 2024).
Where two headings read alike, the source gives them in different places.

Legend:
HiBiT-tagged BCL-xL = target: T1, HiBiT-tagged BCL-xL (Homo sapiens, UniProt Q07817); assay: NCI-H1650 BCL-xL protein levels, Nano-Glo HiBiT Lytic Detection; format: cell-based; settings: NCI-H1650 expressing HiBiT-tagged BCL-xL, overnight incubation, read-out: Bcl-xl HIBIT NCIH1650 DC50
T1 construct: expressed in transfected cells; host or cells: NCI-H1650 (ATCC No. CRL-5883), engineered HiBiT cell line
T1 sequence (Q07817 whole entry): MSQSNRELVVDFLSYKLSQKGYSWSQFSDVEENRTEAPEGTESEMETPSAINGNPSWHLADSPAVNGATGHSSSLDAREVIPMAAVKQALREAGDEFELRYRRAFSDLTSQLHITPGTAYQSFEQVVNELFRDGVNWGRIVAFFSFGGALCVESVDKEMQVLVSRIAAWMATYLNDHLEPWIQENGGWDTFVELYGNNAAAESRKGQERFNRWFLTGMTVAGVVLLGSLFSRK
Protocol: (§1) The ability of the BCL-xL degrader low molecular weight compounds to degrade BCL-xL protein was assessed using the Promega Nano-Glo® HiBiT Lytic Detection System. The NCI-H1650 (ATCC No. CRL-5883) was engineered to express HiBiT-tagged BCL-xL. The NCI-H1650 HiBiT cell line was cultured in media that is optimal for their growth at 5% CO2, 37° C. in a tissue culture incubator. Prior to seeding for the protein level assay, the cells were split at least 2 days before the assay to ensure optimal growth density. On the day of seeding, cells were lifted off tissue culture flasks using 0.25% trypsin. Cell viability and cell density were determined using a cell counter (Vi-Cell XR Cell Viability Analyzer, Beckman Coulter). Cells with higher than 85% viability were seeded in white clear bottom 384-well plates (Greiner cat #781098) at a density of 5000 cells per well in 30 μL of standard growth media. Plates were incubated at 37° C. overnight in a tissue culture incubator.
(§2) The BCL-xL degrader low molecular weight compounds were prepared to desired concentrations. A series of 10 dilutions were made for each prepared compound. The prepared compounds were then added to the cells resulting in final concentrations of 0.508 nM-10 μM. An acoustic transfer device (Echo555, Beckman Coulter) was used to add the compounds to the cells. Each treatment was tested in triplicate assay plates. Plates were incubated at 37° C. overnight in a tissue culture incubator.
BCL-xL degradation was assessed through the addition of 30 μL of Nano-Glo® HiBiT Lytic Reagent (Promega, cat #N3040), a reagent which lyses cells and contains a furimazine substrate and the large subunit (LgBiT) used in NanoLuc® Binary Technology. The LgBiT subunit having high affinity to a HiBiT-tagged protein will bind HiBiT, if present, resulting in complex formation of a luminescent NanoBiT® enzyme. This reaction will emit a luminescent signal proportional to the amount of HiBiT-tagged BCL-xL present in the cell lysate. Plates were incubated at room temperature for 20 minutes to stabilize luminescent signals prior to reading using a luminescence reader (PHERAstar FSX Microplate Reader, BMG Labtech).
To evaluate the effect of the drug treatments, luminescent counts from wells containing untreated cells (100% HiBiT-tagged BCL-xL) were used to normalize treated samples. The concentrations of treatment required to inhibit 50% were calculated using a four parameter logistic regression equation.

[1] = system: EBC-1 lung cancer cell line; assay: EBC-1 cell proliferation, CellTiter-Glo assay; format: cell-based; settings: Ebc-1 cell viability, CTG assay, 5 days of treatment, read-out: CTG 5 day Ebc1 GI50
Protocol: as §1, with “to inhibit cell proliferation and survival” for “to degrade BCL-xL protein”, “Promega CellTiter-Glo® proliferation assay on the EBC-1 lung cancer” for “Promega Nano-Glo® HiBiT Lytic Detection System. The NCI-H1650 (ATCC No. CRL-5883) was engineered to express HiBiT-tagged BCL-xL. The NCI-H1650 HiBiT”, “line (RCB1965, obtained from RIKEN.) The cells were” for “line was”, “the proliferation” for “the protein level”, “of 1000” for “of 5000”, “in 50” for “in 30”
as §2, with “overnight or for 5 days” for “overnight”, “incubator. The ability of the compounds to inhibit cell proliferation and survival was assessed using the Promega CellTiter-Glo® proliferation assay. Plates were incubated at room temperature for 20 minutes to stabilize luminescent signals prior to reading using a multimode plate reader (PHERAstar FSX Microplate Reader, BMG Labtech).” for “incubator.”
To evaluate the effect of the compound treatments, luminescent counts of untreated cells were taken the day after seeding (Day 0 readings), and after 5 days of treatment (Day 5 readings). The Day 5 readings of the untreated cells were compared to the Day 0 readings. Assays with at least one cell doubling during the incubation period were considered valid. To evaluate the effect of the drug treatments, luminescent counts from wells containing untreated cells (100% viability) were used to normalize treated samples. The concentrations of treatment required to inhibit 50% of cell growth or survival ([…]) were calculated using a four parameter logistic regression equation.

Cc1ncsc1-c1ccc([C@H](C)NC(=O)[C@@H]2C[C@@H](O)CN2C(=O)[C@@H](NC(=O)[C@H]2CCCN(C(=O)c3nc(N4CCCc5c4nnc(Nc4nc6ccccc6s4)c5C)ccc3-c3cnn(CC45CC6(C)CC(C)(C4)CC(OCCN4CCCC4)(C6)C5)c3C)C2)C(C)(C)C)cc1 [Example 168, (S)-1-(6-(3-(benzo[d]thiazol-2-ylamino)-4-methyl-6,7-dihydropyrido[2,3-c]pyridazin-8(5H)-yl)-3-(1-(((1r,3R,5S,7R)-3,5-dimethyl-7-(2-(pyrrolidin-1-yl)ethoxy)adamantan-1-yl)methyl)-5-methyl-1H-pyrazol-4-yl)picolinoyl)-N—((S)-1-((2S,4R)-4-hydroxy-2-(((S)-1-(4-(4-methylthiazol-5-yl)phenyl)ethyl)carbamoyl)pyrrolidin-1-yl)-3,3-dimethyl-1-oxobutan-2-yl)piperidine-3-carboxamide]
DC50 (HiBiT-tagged BCL-xL): > 1670 nM | GI50 ([1]; Homo sapiens, 120 h): 73 nM

Cc1ncsc1-c1ccc([C@H](C)NC(=O)[C@@H]2C[C@@H](O)CN2C(=O)[C@@H](NC(=O)[C@@H]2CCCN(C(=O)c3nc(N4CCCc5c4nnc(Nc4nc6ccccc6s4)c5C)ccc3-c3cnn(CC45CC6(C)CC(C)(C4)CC(OCCN4CCCC4)(C6)C5)c3C)C2)C(C)(C)C)cc1 [Example 169, (R)-1-(6-(3-(benzo[d]thiazol-2-ylamino)-4-methyl-6,7-dihydropyrido[2,3-c]pyridazin-8(5H)-yl)-3-(1-(((1r,3R,5S,7S)-3,5-dimethyl-7-(2-(pyrrolidin-1-yl)ethoxy)adamantan-1-yl)methyl)-5-methyl-1H-pyrazol-4-yl)picolinoyl)-N—((S)-1-((2S,4R)-4-hydroxy-2-(((S)-1-(4-(4-methylthiazol-5-yl)phenyl)ethyl)carbamoyl)pyrrolidin-1-yl)-3,3-dimethyl-1-oxobutan-2-yl)piperidine-3-carboxamide]
DC50 (HiBiT-tagged BCL-xL): > 1670 nM | GI50 ([1]; Homo sapiens, 120 h): 6 nM

Cc1ncsc1-c1ccc([C@H](C)NC(=O)[C@@H]2C[C@@H](O)CN2C(=O)C(NC(=O)CCCCCCCCN(C)C(=O)c2nc(N3CCCc4c3nnc(Nc3nc5ccccc5s3)c4C)ccc2-c2cnn(CC34CC5(C)CC(C)(C3)CC(OCCN3CCCC3)(C5)C4)c2C)C(C)(C)C)cc1 (stereo partly drawn) [Example 161, 6-(3-(benzo[d]thiazol-2-ylamino)-4-methyl-6,7-dihydropyrido[2,3-c]pyridazin-8(5H)-yl)-3-(1-(((1r,3R,5S,7s)-3,5-dimethyl-7-(2-(pyrrolidin-1-yl)ethoxy)adamantan-1-yl)methyl)-5-methyl-1H-pyrazol-4-yl)-N-(9-(((S)-1-((2S,4R)-4-hydroxy-2-(((S)-1-(4-(4-methylthiazol-5-yl)phenyl)ethyl)carbamoyl)pyrrolidin-1-yl)-3,3-dimethyl-1-oxobutan-2-yl)amino)-9-oxononyl)-N-methylpicolinamide]
DC50 (HiBiT-tagged BCL-xL): 0.4 nM | GI50 ([1]; Homo sapiens, 120 h): 8 nM

Cc1ncsc1-c1ccc([C@H](C)NC(=O)[C@@H]2C[C@@H](O)CN2C(=O)[C@@H](NC(=O)CC2CC3(C2)CN(C(=O)c2nc(N4CCCc5c4nnc(Nc4nc6ccccc6s4)c5C)ccc2-c2cnn(CC45CC6(C)CC(C)(C4)CC(OCCN4CCCC4)(C6)C5)c2C)C3)C(C)(C)C)cc1 [Example 170, (2S,4R)-1-((S)-2-(2-(2-(6-(3-(benzo[d]thiazol-2-ylamino)-4-methyl-6,7-dihydropyrido[2,3-c]pyridazin-8(5H)-yl)-3-(1-(((1r,3R,5S,7s)-3,5-dimethyl-7-(2-(pyrrolidin-1-yl)ethoxy)adamantan-1-yl)methyl)-5-methyl-1H-pyrazol-4-yl)picolinoyl)-2-azaspiro [3.3]heptan-6-yl)acetamido)-3,3-dimethylbutanoyl)-4-hydroxy-N—((S)-1-(4-(4-methylthiazol-5-yl)phenyl)ethyl)pyrrolidine-2-carboxamide]
DC50 (HiBiT-tagged BCL-xL): 1 nM | GI50 ([1]; Homo sapiens, 120 h): 13 nM

Cc1ncsc1-c1ccc([C@H](C)NC(=O)[C@@H]2C[C@@H](O)CN2C(=O)[C@@H](NC(=O)CCOCCOCCNC(=O)c2nc(N3CCCc4c3nnc(Nc3nc5ccccc5s3)c4C)ccc2-c2cnn(CC34CC5(OCCN6CCCC6)C[C@](C)(C3)C[C@](C)(C4)C5)c2C)C(C)(C)C)cc1 [Example 158, 6-(3-(benzo[d]thiazol-2-ylamino)-4-methyl-6,7-dihydropyrido[2,3-c]pyridazin-8(5H)-yl)-3-(1-(((1r,3R,5S,7s)-3,5-dimethyl-7-(2-(pyrrolidin-1-yl)ethoxy)adamantan-1-yl)methyl)-5-methyl-1H-pyrazol-4-yl)-N-(2-(2-(3-(((S)-1-((2S,4R)-4-hydroxy-2-(((S)-1-(4-(4-methylthiazol-5-yl)phenyl)ethyl)carbamoyl)pyrrolidin-1-yl)-3,3-dimethyl-1-oxobutan-2-yl)amino)-3-oxopropoxy)ethoxy)ethyl)picolinamide]
DC50 (HiBiT-tagged BCL-xL): > 1670 nM | GI50 [1]: 10 nM

Cc1cc(N(CCCCN(C)C(=O)CCCCCCCCCCCCSC(C)(C)[C@H](NC(=O)C2(F)CC2)C(=O)N2C[C@H](O)C[C@H]2C(=O)NCc2ccc(-c3scnc3C)cc2)c2ccc(-c3cnn(CC45CC6(C)CC(C)(C4)CC(OCCN(C)C)(C6)C5)c3C)c(C(=O)O)n2)nnc1Nc1nc2ccccc2s1 [Example 127, 6-[[6-(1,3-benzothiazol-2-ylamino)-5-methyl-pyridazin-3-yl]-[4-[13-[(2R)-2-[(1-fluorocyclopropanecarbonyl)amino]-3-[(2S,4R)-4-hydroxy-2-[[4-(4-methylthiazol-5-yl)phenyl]methylcarbamoyl]pyrrolidin-1-yl]-1,1-dimethyl-3-oxo-propyl]sulfanyltridecanoyl-methyl-amino]butyl]amino]-3-[1-[[3-[2-(dimethylamino)ethoxy]-5,7-dimethyl-1-adamantyl]methyl]-5-methyl-pyrazol-4-yl]pyridine-2-carboxylic acid]
DC50 (HiBiT-tagged BCL-xL): 33 nM | GI50 ([1]; Homo sapiens, 120 h): 462 nM

Cc1ncsc1-c1ccc([C@H](C)NC(=O)[C@@H]2C[C@@H](O)CN2C(=O)[C@@H](NC(=O)[C@H]2CC[C@H](NC(=O)c3nc(N4CCCc5c4nnc(Nc4nc6ccccc6s4)c5C)ccc3-c3cnn(CC45CC6(C)CC(C)(C4)CC(OCCN4CCCC4)(C6)C5)c3C)CC2)C(C)(C)C)cc1 [Example 162, 6-(3-(benzo[d]thiazol-2-ylamino)-4-methyl-6,7-dihydropyrido[2,3-c]pyridazin-8(5H)-yl)-3-(1-(((1r,3R,5S,7s)-3,5-dimethyl-7-(2-(pyrrolidin-1-yl)ethoxy)adamantan-1-yl)methyl)-5-methyl-1H-pyrazol-4-yl)-N-((1S,4R)-4-(((S)-1-((2S,4R)-4-hydroxy-2-(((S)-1-(4-(4-methylthiazol-5-yl)phenyl)ethyl)carbamoyl)pyrrolidin-1-yl)-3,3-dimethyl-1-oxobutan-2-yl)carbamoyl)cyclohexyl)picolinamide]
DC50 (HiBiT-tagged BCL-xL): > 1670 nM | GI50 ([1]; Homo sapiens, 120 h): 222 nM
